Measured values published in patent US8999974B2, “Acyl piperazine derivatives as TTX-S blockers” (Raqualia Pharma Inc., priority 2010, dated 2015).

What follows are compounds tested against T1, human NaV1.3 (Homo sapiens, UniProt Q9NY46) (assay: FRET assay (EFS, FDSS) on HEK293 cells expressing human NaV1.3 channels). Conditions: FRET assay, HEK293 cells expressing human NaV1.3; read-out: IC50 against Nav1.3.
T1 construct: expressed in transfected cells; host or cells: HEK293
Format: cell-based
Protocol: This screen was used to determine the effects of compounds on human NaV1.3, human Nav1.7, and human Nav1.5 channels, utilising electrical field stimulation (EFS) system in 96-well plate format on FDSS (Hamamatsu Photonics) platform. The change of membrane potential was monitored with FRET dye pair, oxonol (DiSBAC2(3)) and coumarin (CC2-DMPE).
Each HEK293 cells expressing human NaV1.3 channels and HEK293 cells expressing human NaV1.5 channels were grown in T225 flasks, in a 5% CO2 humidified incubator to about 80% confluence. Media composition consisted of Dulbecco's Modified Eagle Medium (high glucose), 10% FCS, 100 units/ml Penicillin, 100 microgram/ml Streptomycin and 500 microgram/ml Geneticine.
Protocol: • Seeded each cell lines (1×10^5 cells/well) into poly-D-lysine coated 96-well plates prior to experimentation. • Incubated at 37° C. in 5% CO2 for 24 hours. • Washed each well with assay buffer (140 mM NaCl, 4.5 mM KCl, 10 mM D-Glucose, 2 mM CaCl2, 1 mM MgCl2, 10 mM HEPES, pH 7.4 adjusted with NaOH) twice. • Added 1st loading solution containing 10 microM CC2-DMPE and 0.06% Pluronic F-127 in assay buffer. • Incubated the plate at room temperature in dark for 1 hour. • Removed 1st loading solution and added 2nd loading solution containing 15 microM DiSBAC2(3), 0.555 mM VABSC-1 and 0.004% Pluronic F-127 in assay buffer. • Placed the plate under the dark at room temperature for 25 minutes. • Added compound solutions into the assay plate. • Set the assay plate in FDSS and placed an EFS device on the plate. • Measured EFS-induced fluorescent response by FDSS.
The data were analyzed and reported as normalized ratios of intensities measured at […]. The process of calculating these ratios was performed as follows:
[formula] This analysis was performed using a computerized specific program designed for FDSS generated data. Fluorescence ratio values were plotted using XLfit to determine an IC50 value for each compound.

T1 sequence (Q9NY46 whole entry): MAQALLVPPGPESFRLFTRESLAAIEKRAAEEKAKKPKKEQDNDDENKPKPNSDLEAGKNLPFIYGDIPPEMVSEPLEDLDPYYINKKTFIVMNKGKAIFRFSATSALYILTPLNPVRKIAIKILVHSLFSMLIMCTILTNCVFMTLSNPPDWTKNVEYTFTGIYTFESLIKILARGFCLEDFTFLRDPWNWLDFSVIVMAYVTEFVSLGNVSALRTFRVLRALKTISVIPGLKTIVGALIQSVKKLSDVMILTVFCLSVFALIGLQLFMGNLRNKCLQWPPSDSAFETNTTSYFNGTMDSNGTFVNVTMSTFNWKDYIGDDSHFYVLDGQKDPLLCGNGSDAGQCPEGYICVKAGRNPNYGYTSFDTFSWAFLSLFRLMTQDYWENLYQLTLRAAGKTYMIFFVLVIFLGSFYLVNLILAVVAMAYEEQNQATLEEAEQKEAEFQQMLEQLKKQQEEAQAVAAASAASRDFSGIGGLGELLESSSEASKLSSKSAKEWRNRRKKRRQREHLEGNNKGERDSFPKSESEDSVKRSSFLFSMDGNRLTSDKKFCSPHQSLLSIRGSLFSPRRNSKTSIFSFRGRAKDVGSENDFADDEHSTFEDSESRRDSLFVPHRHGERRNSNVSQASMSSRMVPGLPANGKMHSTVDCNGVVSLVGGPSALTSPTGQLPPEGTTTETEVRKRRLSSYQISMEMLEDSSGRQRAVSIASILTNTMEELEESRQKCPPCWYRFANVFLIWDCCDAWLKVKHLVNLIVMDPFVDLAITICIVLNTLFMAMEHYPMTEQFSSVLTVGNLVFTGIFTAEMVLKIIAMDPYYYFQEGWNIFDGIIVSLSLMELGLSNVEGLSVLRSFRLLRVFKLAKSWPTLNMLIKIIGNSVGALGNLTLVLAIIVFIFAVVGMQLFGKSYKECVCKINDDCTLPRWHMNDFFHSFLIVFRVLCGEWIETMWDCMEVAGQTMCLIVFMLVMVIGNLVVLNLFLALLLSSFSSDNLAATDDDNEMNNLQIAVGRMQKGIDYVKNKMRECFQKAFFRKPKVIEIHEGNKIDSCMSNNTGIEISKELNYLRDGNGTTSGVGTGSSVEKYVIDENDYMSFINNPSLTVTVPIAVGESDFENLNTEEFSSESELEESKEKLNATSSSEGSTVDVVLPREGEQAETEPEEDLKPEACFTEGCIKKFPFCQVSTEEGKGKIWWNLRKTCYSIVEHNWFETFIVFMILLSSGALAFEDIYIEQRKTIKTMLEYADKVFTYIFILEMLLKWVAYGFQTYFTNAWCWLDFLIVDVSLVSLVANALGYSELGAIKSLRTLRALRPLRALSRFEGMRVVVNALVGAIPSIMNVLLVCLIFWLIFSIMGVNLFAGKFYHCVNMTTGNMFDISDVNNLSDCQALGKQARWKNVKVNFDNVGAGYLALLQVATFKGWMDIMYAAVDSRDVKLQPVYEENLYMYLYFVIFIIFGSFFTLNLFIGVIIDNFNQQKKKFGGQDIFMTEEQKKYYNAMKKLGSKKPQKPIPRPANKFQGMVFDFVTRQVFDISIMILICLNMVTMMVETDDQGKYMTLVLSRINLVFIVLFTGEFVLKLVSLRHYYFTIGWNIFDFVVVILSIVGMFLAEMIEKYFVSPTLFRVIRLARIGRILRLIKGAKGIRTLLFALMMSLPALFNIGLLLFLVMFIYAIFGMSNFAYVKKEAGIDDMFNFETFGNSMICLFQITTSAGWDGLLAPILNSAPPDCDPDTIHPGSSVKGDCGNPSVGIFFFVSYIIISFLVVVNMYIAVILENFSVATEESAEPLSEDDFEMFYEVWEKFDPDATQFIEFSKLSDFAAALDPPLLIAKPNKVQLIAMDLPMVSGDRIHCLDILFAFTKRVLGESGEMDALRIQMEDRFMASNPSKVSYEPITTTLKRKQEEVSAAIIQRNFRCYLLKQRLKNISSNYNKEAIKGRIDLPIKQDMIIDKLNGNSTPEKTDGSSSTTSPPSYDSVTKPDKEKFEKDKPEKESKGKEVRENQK

IC50, < 3 µM:
Cc1ccc(C(=O)N2CCN(c3cc(OC4CCC4)ncn3)CC2)cc1F [Example 16]
CC(C)COc1cc(N2CCN(C(=O)c3ccc4ccccc4n3)CC2)ncn1 [Example 18, (4-(6-isobutoxypyrimidin-4-yl)piperazin-1-yl)(quinolin-2-yl)methanone]
CC(C)COc1cc(N2CCN(C(=O)c3nc4ccccc4n3C)CC2)ncn1 [Example 23, (4-(6-isobutoxypyrimidin-4-yl)piperazin-1-yl)(1-methyl-1H-benzo[d]imidazol-2-yl)methanone]
Cn1nc(C(=O)N2CCN(c3cc(OCC(F)(F)F)ncn3)CC2)c2ccccc21 [Example 30, (1-methyl-1H-indazol-3-yl)(4-(6-(2,2,2-trifluoroethoxy)pyrimidin-4-yl)piperazin-1-yl)methanone]
O=C(c1cnc2ccccc2n1)N1CCN(c2cc(OC3CCC3)ncn2)CC1 [Example 82, (4-(6-cyclobutoxypyrimidin-4-yl)piperazin-1-yl)(quinoxalin-2-yl)methanone]
CC(C)COc1cc(N2CCN(C(=O)c3cc(-c4cccnc4)nn3C)CC2)ncn1 [Example 189, (4-(6-isobutoxypyrimidin-4-yl)piperazin-1-yl)(1-methyl-3-(pyridin-3-yl)-1H-pyrazol-5-yl)methanone]
CC(C)COc1cc(N2CCN(C(=O)c3cc(-c4ccccc4)nn3C)CC2)ncn1 [Example 134, (4-(6-isobutoxpyrimidin-4-yl)piperazin-1-yl)(1-methyl-3-phenyl-1H-pyrazol-5-yl)methanone]
CC(C)COc1cc(N2CCN(C(=O)c3cc(-c4ccccc4)ncn3)CC2)ncn1 [Example 185, (4-(6-isobutoxypyrimidin-4-yl)piperazin-1-yl)(6-phenylpyrimidin-4-yl)methanone]
CCn1nc(C(F)(F)F)cc1C(=O)N1CCN(c2cc(OCC(C)C)ncn2)CC1 [Example 217, (1-ethyl-3-(trifluoromethyl)-1H-pyrazol-5-yl)(4-(6-isobutoxypyrimidin-4-yl)piperazin-1-yl)methanone]
CC(C)Oc1cc(N2CCN(C(=O)c3nn(C)c4ccc(F)cc34)CC2)ncn1 [Example 210, (5-fluoro-1-methyl-1H-indazol-3-yl)(4-(6-isopropoxypyrimidin-4-yl)piperazin-1-yl)methanone]
CC(C)COc1cc(N2CCN(C(=O)[C@@H](C)Oc3ccc(F)cc3)CC2)ncn1 [Example 152, (R)-2-(4-fluorophenoxy)-1-(4-(6-isobutoxypyrimidin-4-yl)piperazin-1-yl)propan-1-one]
Cc1c(C(=O)N2CCN(c3cc(OCC(C)C)ncn3)CC2)cnn1-c1ccccc1 [Example 135]
CC(C)COc1cc(N2CCN(C(=O)C(NC(=O)OC(C)(C)C)c3ccccc3)CC2)ncn1 (stereo in doubt) [Example 11, (R)-tert-butyl (2-(4-(6-isobutoxypyrimidin-4-yl)piperazin-1-yl)-2-oxo-1-phenylethyl)carbamate]
Cc1ccc(C(=O)N2CCN(c3cc(OC4CCCC4)ncn3)CC2)cc1F [Example 7]
COc1cccc(C(=O)NCC(=O)N2CCN(c3cc(OCC(C)C)ncn3)CC2)n1 [Example 73, N-(2-(4-(6-isobutoxypyrimidin-4-yl)piperazin-1-yl)-2-oxoethyl)-6-methoxypicolinamide]
Cc1c(C(=O)N2CCN(c3cc(OC4CCC4)ncn3)CC2)nnn1-c1ccccc1 [Example 219, (4-(6-cyclobutoxypyrimidin-4-yl)piperazin-1-yl)(5-methyl-1-phenyl-1H-1,2,3-triazol-4-yl)methanone]
CC(C)COc1cc(N2CCN(C(=O)CS(=O)(=O)c3ccc(Cl)cc3)CC2)ncn1 [Example 121, 2-((4-chlorophenyl)sulfonyl)-1-(4-(6-isobutoxypyrimidin-4-yl)piperazin-1-yl)ethanone]
CC(C)Oc1cc(N2CCN(C(=O)c3cc(-c4ccccc4)nn3C)CC2)ncn1 [Example 164, (4-(6-isopropoxypyrimidin-4-yl)piperazin-1-yl)(1-methyl-3-phenyl-1H-pyrazol-5-yl)methanone]
CC(C)COc1cc(N2CCN(C(=O)CN3C(=O)COc4ccccc43)CC2)ncn1 [Example 57, 4-(2-(4-(6-isobutoxypyrimidin-4-yl)piperazin-1-yl)-2-oxoethyl)-2H-benzo[b][1,4]oxazin-3(4H)-one]
O=C(c1n[nH]c2ccccc12)N1CCN(c2cc(OCC(F)(F)F)ncn2)CC1 [Example 68, (1H-indazol-3-yl)(4-(6-(2,2,2-trifluoroethoxy)pyrimidin-4-yl)piperazin-1-yl)methanone]
CC(C)COc1cc(N2CCN(C(=O)Cc3ccc(F)cc3)CC2)ncn1 [Example 119, 2-(4-fluorophenyl)-1-(4-(6-isobutoxypyrimidin-4-yl)piperazin-1-yl)ethanone]
O=C(c1ccc2cccc(O)c2n1)N1CCN(c2cc(OC3CCC3)ncn2)CC1 [Example 83, (4-(6-cyclobutoxypyrimidin-4-yl)piperazin-1-yl)(8-hydroxyquinolin-2-yl)methanone]
CC(C)COc1cc(N2CCN(C(=O)CN3CCc4ccccc4C3=O)CC2)ncn1 [Example 98, 2-(2-(4-(6-isobutoxypyrimidin-4-yl)piperazin-1-yl)-2-oxoethyl)-3,4-dihydroisoquinolin-1(2H)-one]
CC(C)COc1cc(N2CCN(C(=O)c3cccc(OCC(F)(F)F)n3)CC2)ncn1 [Example 232, (4-(6-isobutoxypyrimidin-4-yl)piperazin-1-yl)(6-(2,2,2-trifluoroethoxy)pyridin-2-yl)methanone]
CC(C)COc1cc(N2CCN(C(=O)C(O)Cc3ccccc3)CC2)ncn1 (stereo in doubt) [Example 5, (R)-2-hydroxy-1-(4-(6-isobutoxypyrimidin-4-yl)piperazin-1-yl)-3-phenylpropan-1-one]
CC(C)COc1cc(N2CCN(C(=O)COc3ccc(F)c(F)c3)CC2)ncn1 [Example 97, 2-(3,4-difluorophenoxy)-1-(4-(6-isobutoxypyrimidin-4-yl)piperazin-1-yl)ethanone]
O=C(NCC(=O)N1CCN(c2cc(OC3CCC3)ncn2)CC1)c1ccccc1 [Example 85, N-(2-(4-(6-cyclobutoxypyrimidin-4-yl)piperazin-1-yl)-2-oxoethyl)benzamide]
CC(C)Oc1cc(N2CCN(C(=O)c3csc(-c4ccccn4)n3)CC2)ncn1 [Example 193, (4-(6-isopropoxypyrimidin-4-yl)piperazin-1-yl)(2-(pyridin-2-yl)thiazol-4-yl)methanone]
CC(C)COc1cc(N2CCN(C(=O)c3cccc(N4CCCC4)n3)CC2)ncn1 [Example 52, (4-(6-isobutoxypyrimidin-4-yl)piperazin-1-yl)(6-(pyrrolidin-1-yl)pyridin-2-yl)methanone]
Cc1c(C(=O)N2CCN(c3cc(OC(C)C)ncn3)CC2)nnn1-c1ccc(F)cc1 [Example 203, (1-(4-fluorophenyl)-5-methyl-1H-1,2,3-triazol-4-yl)(4-(6-isopropoxypyrimidin-4-yl)piperazin-1-yl)methanone]
CC(C)COc1cc(N2CCN(C(=O)c3cccc4[nH]ccc34)CC2)ncn1 [Example 9, (1H-indol-4-yl)(4-(6-isobutoxypyrimidin-4-yl)piperazin-1-yl)methanone]
Cc1c(C(=O)N2CCN(c3cc(OCC(F)(F)F)ncn3)CC2)nnn1-c1ccc(F)cc1 [Example 205, (1-(4-fluorophenyl)-5-methyl-1H-1,2,3-triazol-4-yl)(4-(6-(2,2,2-trifluoroethoxy)pyrimidin-4-yl)piperazin-1-yl)methanone]
Cc1ccc(C(=O)N2C[C@@H]3C[C@H]2CN3c2cc(OCC(C)C)ncn2)cc1F [Example 94, (3-fluoro-4-methylphenyl)((1S,4S)-5-(6-isobutoxypyrimidin-4-yl)-2,5-diazabicyclo[2.2.1]heptan-2-yl)methanone]
CC(C)COc1cc(N2CCN(C(=O)c3cn(-c4ccccc4)nn3)CC2)ncn1 [Example 206, (4-(6-isobutoxypyrimidin-4-yl)piperazin-1-yl)(1-phenhyl-1H-1,2,3-triazol-4-yl)methanone]
